According to ChEMBL document CHEMBL1137482, “Carbonic anhydrase inhibitors: cloning, characterization, and inhibition studies of the cytosolic isozyme III with sulfonamides” (Bioorg Med Chem, 2007):

Target: Carbonic anhydrase 3 (Homo sapiens, UniProt P07451)
Sequence (P07451 whole entry): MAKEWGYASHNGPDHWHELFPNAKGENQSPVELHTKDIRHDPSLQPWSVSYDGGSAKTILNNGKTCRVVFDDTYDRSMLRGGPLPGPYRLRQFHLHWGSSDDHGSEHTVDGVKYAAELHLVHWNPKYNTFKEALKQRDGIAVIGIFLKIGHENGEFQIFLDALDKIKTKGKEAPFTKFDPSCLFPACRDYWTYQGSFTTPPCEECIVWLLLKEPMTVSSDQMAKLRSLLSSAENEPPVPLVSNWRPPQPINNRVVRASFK

Row | SMILES | Ki [µM]
1 | Nc1nccc(Nc2ccc(S(N)(=O)=O)cc2)n1 | 2630
2 | Cn1nc(S(N)(=O)=O)sc1=N | 198
3 | NS(=O)(=O)c1ccc(CCO)cc1 | 1190
4 | NS(=O)(=O)c1ccc(CO)cc1 | 4890
5 | CCNC1CN(CCCOC)S(=O)(=O)c2sc(S(N)(=O)=O)cc21 (single isomer, unassigned) [BRINZOLAMIDE] | 110
6 | Cc1ccc(-c2cc(C(F)(F)F)nn2-c2ccc(S(N)(=O)=O)cc2)cc1 [CELECOXIB] | 154
7 | NS(=O)(=O)c1cc(Cl)c(Cl)c(S(N)(=O)=O)c1 [DICHLORPHENAMIDE] | 684
8 | NCc1ccc(S(N)(=O)=O)cc1 [MAFENIDE] | 681
9 | O=C1NS(=O)(=O)c2ccccc21 [SACCHARIN] | 1000
10 | CC1(C)O[C@@H]2[C@@H](CO[C@@]3(COS(N)(=O)=O)OC(C)(C)O[C@@H]23)O1 [TOPIRAMATE] | 780

Continued by falling Ki, values first:

Row | Ki [µM] | SMILES
11 | 2070 | Nc1ccc(S(N)(=O)=O)cc1F
12 | 988 | Nc1ccc(S(N)(=O)=O)cc1 [SULFANILAMIDE]
13 | 887 | Nc1ccccc1S(N)(=O)=O
14 | 710 | Nc1ccc(S(N)(=O)=O)cc1Cl
15 | 148 | Nc1nnc(S(N)(=O)=O)s1
16 | 140 | Nc1ccc(S(=O)(=O)NCCc2ccc(S(N)(=O)=O)cc2)cc1
17 | 114 | Nc1ccc(S(=O)(=O)NCc2ccc(S(N)(=O)=O)cc2)cc1
18 | 18.1 | Nc1ccc(S(=O)(=O)Nc2nnc(S(N)(=O)=O)s2)cc1
19 | 11.3 | NS(=O)(=O)c1ccc(C(=O)O)cc1 [CARZENIDE]
20 | 10.6 | CCN1CCCC1CNC(=O)c1cc(S(N)(=O)=O)ccc1OC (configuration not stated) [SULPIRIDE]
21 | 10.4 | NS(=O)(=O)c1ccc(S(=O)(=O)Nc2cccc3c(Cl)c[nH]c23)cc1
22 | 7.9 | Cc1ccc(S(N)(=O)=O)cc1 [P-TOLUENESULFONAMIDE]
